Some test systems named below: SNB-19 CNS; NCI/ADR-RES ovarian; PC-3 prostate; T-47D breast; OVCAR-4 ovarian; MALME-3M melanoma; MDA-MB-435; CAKI-1 renal.
Holding throughout (test): DTP human tumour cell line panel, 48 h

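Where inhibition never reached the appropriate level, the endpoint shown equals the highest concentration tested. Otherwise, values were interpolated linearly from a five-concentration, 48-hour dose response in 96-well plates. GI50: concentration for 50% inhibition of growth. TGI is the concentration that stops growth completely.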

Usually GI50 stands for the concentration at which growth is held to half of that of the control. The TGI is the concentration at which net growth stops. A higher TGI goes with lower sensitivity of the cells.

`O=C(Cc1ccc(/C=C/C(=O)c2ncc[nH]2)cc1)Nc1ccc(F)cc1`: the GI50 in the assay with SNB-19 CNS was 1.58 µM; in the assay on NCI/ADR-RES ovarian, 7.18 µM; with PC-3 prostate, 2.8 µM; with T-47D breast it was 3.33 µM; in the assay with OVCAR-4 ovarian it was 9.14 µM; in the assay on MALME-3M melanoma, 7.86 µM. Moreover, the GI50 in the assay on MDA-MB-435 was 4.07 µM. Also, the TGI in the assay on SNB-19 CNS was 14.9 µM; in the assay with NCI/ADR-RES ovarian, greater than 33.3 µM; with PC-3 prostate, 11.9 µM; in the assay on T-47D breast it was 24.6 µM; with OVCAR-4 ovarian it was greater than 33.3 µM; in the assay with MALME-3M melanoma, 22.1 µM. The compound further came in with a TGI with MDA-MB-435 of 20.1 µM.

For `Fc1cc2[nH]ncc2c2c3c(c(-c4cn[nH]c4C(F)(F)F)nc12)CCCC3`, the GI50 was 2.29 µM in the assay with SNB-19 CNS; 4.95 µM in the assay on NCI/ADR-RES ovarian; 1.86 µM with PC-3 prostate; 1.97 µM in the assay with T-47D breast; 1.91 µM in the assay on MALME-3M melanoma; 2.39 µM in the assay with MDA-MB-435. Besides, the GI50 with CAKI-1 renal was 1.81 µM. Besides, the TGI with SNB-19 CNS is 9.37 µM; in the assay on NCI/ADR-RES ovarian, 43.4 µM; with PC-3 prostate, greater than 100 µM; in the assay with T-47D breast, 7.39 µM; with MALME-3M melanoma it was 5.41 µM; in the assay on MDA-MB-435, 12.1 µM. For the same compound, the TGI with CAKI-1 renal came to 7.54 µM.

In the case of `O=C(Nc1ccc2[nH]nc(-c3ccncc3)c2c1)[C@@H]1CCN(CC(=O)N2CCN(c3ccc(-c4ncccn4)cc3)CC2)C1`, the GI50 in the assay with SNB-19 CNS is greater than 100 µM; with NCI/ADR-RES ovarian, greater than 100 µM; in the assay on PC-3 prostate, 13.7 µM; in the assay with T-47D breast, 2.74 µM; in the assay on OVCAR-4 ovarian, 5.91 µM. In addition, the TGI in the assay on SNB-19 CNS, in the assay on NCI/ADR-RES ovarian, in the assay on PC-3 prostate, in the assay with T-47D breast and in the assay with OVCAR-4 ovarian was greater than 100 µM each time.

`CCOC(=O)C1Cc2c(cc3c4c(cccc24)N(C(C)=O)C3)N(C)C1` (centres undefined): the TGI is greater than 100 µM in the assay with SNB-19 CNS; greater than 100 µM with PC-3 prostate; greater than 100 µM with T-47D breast; greater than 100 µM with OVCAR-4 ovarian; greater than 100 µM in the assay on MALME-3M melanoma; 7.04 µM with MDA-MB-435. In addition, the TGI with CAKI-1 renal is greater than 100 µM.

Regarding `CCOC(=O)c1ccc(NC(=O)Nc2nncs2)cc1`, the GI50 in the assay on SNB-19 CNS was 0.456 µM; with NCI/ADR-RES ovarian, 0.229 µM; with PC-3 prostate, 0.273 µM; in the assay on T-47D breast, 0.584 µM; with OVCAR-4 ovarian, 0.916 µM; in the assay on MALME-3M melanoma, 0.132 µM. Moreover, the GI50 in the assay with CAKI-1 renal is 0.427 µM. Also, the TGI was greater than 61.1 µM in the assay on SNB-19 CNS; 10.6 µM with NCI/ADR-RES ovarian; 24.2 µM in the assay on PC-3 prostate; 34.4 µM with T-47D breast; 21.5 µM in the assay on OVCAR-4 ovarian; 36.1 µM with MALME-3M melanoma. This compound also had a TGI with CAKI-1 renal greater than 47 µM.

On to `COc1cc(/C=C\c2cc(OC)c(OC)c(OC)c2)cc(N/C=C\C(=O)c2ccc(OC(F)(F)F)cc2)c1OC`, for which the GI50 in the assay with SNB-19 CNS was 4.97 µM; in the assay on NCI/ADR-RES ovarian, 3.04 µM; with T-47D breast, 4.16 µM; with OVCAR-4 ovarian, 7.54 µM; with MALME-3M melanoma it was 14.7 µM; in the assay with MDA-MB-435 it was 1.84 µM. Moreover, the GI50 with CAKI-1 renal is 4.96 µM. Moreover, the TGI was greater than 100 µM in the assay on SNB-19 CNS; 9.85 µM in the assay on NCI/ADR-RES ovarian; greater than 100 µM in the assay with T-47D breast; greater than 100 µM in the assay with OVCAR-4 ovarian; greater than 100 µM in the assay with MALME-3M melanoma; 5.52 µM in the assay on MDA-MB-435. Besides, in the assay with CAKI-1 renal, the TGI was greater than 100 µM.

`CS(=O)(=O)Nc1cncc(-c2ccc3ncnc(Nc4ccc(F)c(Cl)c4)c3c2)c1`: the GI50 in the assay with SNB-19 CNS is 2.09 µM; with NCI/ADR-RES ovarian it was 15.4 µM; in the assay on PC-3 prostate, 2.69 µM; in the assay with T-47D breast, 0.189 µM; in the assay on OVCAR-4 ovarian, 4.96 µM; in the assay on MALME-3M melanoma, 2.08 µM. For the same compound, the GI50 in the assay with MDA-MB-435 was 3.92 µM. Besides, the TGI in the assay with SNB-19 CNS amounted to 18.1 µM; in the assay on NCI/ADR-RES ovarian, 60 µM; in the assay with PC-3 prostate, 15 µM; in the assay on T-47D breast it was 2.5 µM; in the assay with OVCAR-4 ovarian, 96.6 µM; with MALME-3M melanoma, 13.6 µM. In the assay on MDA-MB-435, this compound gave a TGI of 17 µM.

As to `O=C(CC(Cl)=C(Cl)Cl)Nc1ccccc1`, the GI50 with SNB-19 CNS, in the assay with NCI/ADR-RES ovarian, in the assay on PC-3 prostate, in the assay with T-47D breast, in the assay with OVCAR-4 ovarian and in the assay with MALME-3M melanoma was greater than 100 µM in each case. The TGI in the assay on SNB-19 CNS, in the assay on NCI/ADR-RES ovarian, in the assay on PC-3 prostate, in the assay with T-47D breast, in the assay with OVCAR-4 ovarian and with MALME-3M melanoma was greater than 100 µM throughout.

As for `COc1cc(C2Cc3ncccc3-c3[nH]c(=O)c4cccnc4c32)cc(OC)c1OC` (centres undefined), the GI50 with SNB-19 CNS is 0.823 µM; with NCI/ADR-RES ovarian it was 2.16 µM; in the assay with PC-3 prostate it was 0.513 µM; in the assay with OVCAR-4 ovarian, 1.12 µM; with MALME-3M melanoma, greater than 100 µM; in the assay with MDA-MB-435 it was 0.0554 µM. In addition, the GI50 with CAKI-1 renal was 1.58 µM. Besides, the TGI in the assay on SNB-19 CNS was greater than 100 µM; with NCI/ADR-RES ovarian, greater than 100 µM; in the assay with PC-3 prostate it was greater than 100 µM; in the assay with OVCAR-4 ovarian, greater than 100 µM; in the assay on MALME-3M melanoma, greater than 100 µM; with MDA-MB-435, 0.428 µM. Further, the TGI with CAKI-1 renal is greater than 100 µM.

`COc1ccc(/C=C(/C#N)C(N)=O)c(OC)c1`: the TGI in the assay on SNB-19 CNS is greater than 100 µM; in the assay with NCI/ADR-RES ovarian, greater than 100 µM; in the assay on PC-3 prostate, greater than 100 µM; in the assay on T-47D breast, greater than 100 µM; with OVCAR-4 ovarian it was greater than 100 µM; in the assay on MDA-MB-435, 48.5 µM. For the same compound, the concentration for total growth inhibition (TGI) in the assay on CAKI-1 renal was greater than 100 µM.

On to `CCOC(=O)c1cc(C(=O)c2cc(OC)c(OC)c(OC)c2)n2ncccc12`, for which the GI50 in the assay with SNB-19 CNS was 0.705 µM; in the assay on NCI/ADR-RES ovarian it was 0.237 µM; with PC-3 prostate it was 0.289 µM; in the assay with OVCAR-4 ovarian it was 0.805 µM; with MDA-MB-435 it was 0.0314 µM; in the assay on CAKI-1 renal, 0.374 µM. Further, the concentration for total growth inhibition (TGI) in the assay on SNB-19 CNS is greater than 100 µM; in the assay on NCI/ADR-RES ovarian, greater than 42.9 µM; in the assay with PC-3 prostate, greater than 100 µM; in the assay on OVCAR-4 ovarian it was greater than 100 µM; in the assay with MALME-3M melanoma it was greater than 100 µM; in the assay on MDA-MB-435 it was 0.117 µM. The TGI in the assay on CAKI-1 renal is greater than 100 µM.

For the compound `O=C1CSCc2sccc21`, the TGI with SNB-19 CNS, in the assay with NCI/ADR-RES ovarian, in the assay with PC-3 prostate, in the assay with T-47D breast, in the assay on OVCAR-4 ovarian and with CAKI-1 renal was greater than 100 µM throughout.

Source of the values: PubChem BioAssay (NCI).
